The source of these data is patent publication US12162872B2, “Cycloalkylurea derivative” (Sumitomo Pharma Co., Ltd., priority 2019, dated 2024).

The first experiment has as its target T1, Human orexin receptor type 2 (Homo sapiens, UniProt O43614).
T1 construct: expressed in transfected cells; host or cells: CHO cells (transient expression)
T1 sequence (O43614 1-444): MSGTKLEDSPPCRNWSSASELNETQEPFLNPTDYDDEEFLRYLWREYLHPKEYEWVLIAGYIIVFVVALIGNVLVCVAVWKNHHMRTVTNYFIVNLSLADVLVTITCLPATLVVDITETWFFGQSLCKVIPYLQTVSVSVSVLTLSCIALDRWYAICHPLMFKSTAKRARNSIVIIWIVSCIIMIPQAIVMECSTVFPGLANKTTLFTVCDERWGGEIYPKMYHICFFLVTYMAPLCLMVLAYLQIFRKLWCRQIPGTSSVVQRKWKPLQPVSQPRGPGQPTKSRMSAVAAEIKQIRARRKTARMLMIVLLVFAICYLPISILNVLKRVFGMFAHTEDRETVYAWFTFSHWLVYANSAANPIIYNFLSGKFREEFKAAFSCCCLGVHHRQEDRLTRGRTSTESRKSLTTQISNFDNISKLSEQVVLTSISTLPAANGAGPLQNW
The experiment can be described thus: Test 2: Evaluation of agonist activity for orexin receptor type 2 (aequorin luminescence, intracellular calcium mobilization in CHO cells). Type of experiment: cell-based. Conditions: relative percentage of luminescence for the luminescence (100%) of Orexin A (100 pM); CHO cells transiently expressing human orexin receptor type 2 and apoaequorin; Orexin A Lot. 671009. In outline: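 CHO cells transiently co-expressing the receptor and apoaequorin, incubated 16–22 h, were loaded 2 h at room temperature with 1 μM coelenterazine hcp (final). Compounds in Hanks/20 mM HEPES/0.1% BSA (0.1% DMSO final) were added and the calcium luminescence was read and expressed as % of Orexin A (100 pM).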
On to `CN(CC1(F)CC1)C1CCN([C@H]2CCCC(F)(F)[C@@H]2NC(=O)N2CCC(C)(c3noc([C@@H]4C[C@@H]4F)n3)CC2)CC1` [Example 136, N-[(1R,6S)-2,2-difluoro-6-(4-{[(1-fluorocyclopropyl)methyl](methyl)amino}piperidin-1-yl)cyclohexyl]-4-{5-[(1S,2S)-2-fluorocyclopropyl]-1,2,4-oxadiazol-3-yl}-4-methylpiperidine-1-carboxamide], for which the “agonist activity (%)” value is reported as 346%.
On the same count and under the same terms, then `CN(CC1CC1)[C@H]1CCN([C@H]2CCCC(F)(F)[C@@H]2NC(=O)N2CCC(C)(c3noc([C@@H]4C[C@@H]4F)n3)CC2)C1` [Example 137, N-[(1R,6S)-6-{(3S)-3-[(cyclopropylmethyl)(methyl)amino]pyrrolidin-1-yl}-2,2-difluorocyclohexyl]-4-{5-[(1S,2S)-2-fluorocyclopropyl]-1,2,4-oxadiazol-3-yl}-4-methylpiperidine-1-carboxamide], with 376%; and `CN(CC1CC1)[C@H]1CCN([C@H]2CCCC(F)(F)[C@@H]2NC(=O)N2CCC(C)(c3noc(C4CC4)n3)CC2)C1` [Example 138, N-[(1R,6S)-6-{(3S)-3-[(cyclopropylmethyl)(methyl)amino]pyrrolidin-1-yl}-2,2-difluorocyclohexyl]-4-(5-cyclopropyl-1,2,4-oxadiazol-3-yl)-4-methylpiperidine-1-carboxamide], with 385%; and `CN(CC1(C(F)(F)F)CC1)C1CCN([C@H]2CCCC(F)(F)[C@@H]2NC(=O)N2CCC(C)(c3noc([C@@H]4C[C@@H]4F)n3)CC2)CC1` [Example 140, N-{(1R,6S)-2,2-difluoro-6-[4-(methyl{[1-(trifluoromethyl)cyclopropyl]methyl}amino)piperidin-1-yl]cyclohexyl}-4-{5-[(1S,2S)-2-fluorocyclopropyl]-1,2,4-oxadiazol-3-yl}-4-methylpiperidine-1-carboxamide], with 249%.
`CC(C)(F)CN1CC[C@H](O[C@H]2CCCC(F)(F)[C@@H]2NC(=O)N2CCC(C)(c3noc([C@@H]4C[C@@H]4F)n3)CC2)C1` [Example 143, N-[(1R,6S)-2,2-difluoro-6-{[(3S)-1-(2-fluoro-2-methylpropyl)pyrrolidin-3-yl]oxy}cyclohexyl]-4-{5-[(1S,2S)-2-fluorocyclopropyl]-1,2,4-oxadiazol-3-yl}-4-methylpiperidine-1-carboxamide]: the “agonist activity (%)” value turned out to be 444%.
On to `CN(CC1CC1)[C@H]1CCCN([C@H]2CCCC(F)(F)[C@@H]2NC(=O)N2CCC(C)(c3noc([C@@H]4C[C@@H]4F)n3)CC2)CC1` [Example 144, N-[(1R,6S)-6-{(4S)-4-[(cyclopropylmethyl)(methyl)amino]azepan-1-yl}-2,2-difluorocyclohexyl]-4-{5-[(1S,2S)-2-fluorocyclopropyl]-1,2,4-oxadiazol-3-yl}-4-methylpiperidine-1-carboxamide], for which the “agonist activity (%)” value worked out at 399%.
The same measure, in the same setting: then `CN(CC1CC1)[C@@H]1CCCN([C@H]2CCCC(F)(F)[C@@H]2NC(=O)N2CCC(C)(c3noc([C@@H]4C[C@@H]4F)n3)CC2)CC1` [Example 145, N-[(1R,6S)-6-{(4R)-4-[(cyclopropylmethyl)(methyl)amino]azepan-1-yl}-2,2-difluorocyclohexyl]-4-{5-[(1S,2S)-2-fluorocyclopropyl]-1,2,4-oxadiazol-3-yl}-4-methylpiperidine-1-carboxamide], with 403%.
On the same count and under the same terms, then `CC(C)N1CCN([C@H]2CCCC(F)(F)[C@@H]2N(C)C(=O)N2CCC(C)(c3noc([C@@H]4C[C@@H]4F)n3)CC2)CC1` [Example 146, N-{(1R,6S)-2,2-difluoro-6-[4-(propan-2-yl)piperazin-1-yl]cyclohexyl}-4-{5-[(1S,2S)-2-fluorocyclopropyl]-1,2,4-oxadiazol-3-yl}-N,4-dimethylpiperidine-1-carboxamide], with 23%; and `CC(C)N1CCN([C@H]2CCCC(C)(C)[C@@H]2NC(=O)N2CCC(C)(c3noc(C4CC4)n3)CC2)CC1` [Example 147, 4-(5-cyclopropyl-1,2,4-oxadiazol-3-yl)-N-{(1S,6S)-2,2-dimethyl-6-[4-(propan-2-yl)piperazin-1-yl]cyclohexyl}-4-methylpiperidine-1-carboxamide], with 373%; and `CC(C)N(C)C1CN([C@H]2CCCC(F)(F)[C@@H]2NC(=O)N2CCC(C)(c3noc([C@@H]4C[C@@H]4F)n3)CC2)C1` [Example 148, N-[(1R,6S)-2,2-difluoro-6-{3-[methyl(propan-2-yl)amino]azetidin-1-yl}cyclohexyl]-4-{5-[(1S,2S)-2-fluorocyclopropyl]-1,2,4-oxadiazol-3-yl}-4-methylpiperidine-1-carboxamide], with 391%.
Same read-out and setting: under `CN(CC1CC1)C1CN([C@H]2CCCC(F)(F)[C@@H]2NC(=O)N2CCC(C)(c3noc([C@@H]4C[C@@H]4F)n3)CC2)C1` [Example 149, N-[(1R,6S)-6-{3-[(cyclopropylmethyl)(methyl)amino]azetidin-1-yl}-2,2-difluorocyclohexyl]-4-{5-[(1S,2S)-2-fluorocyclopropyl]-1,2,4-oxadiazol-3-yl}-4-methylpiperidine-1-carboxamide] stands 419%; under `CC1(CN2CC[C@H](O[C@H]3CCCC(F)(F)[C@@H]3NC(=O)N3CCC(C)(c4noc([C@@H]5C[C@@H]5F)n4)CC3)C2)COC1` [Example 150, N-[(1R,6S)-2,2-difluoro-6-({(3S)-1-[(3-methyloxetan-3-yl)methyl]pyrrolidin-3-yl}oxy)cyclohexyl]-4-{5-[(1S,2S)-2-fluorocyclopropyl]-1,2,4-oxadiazol-3-yl}-4-methylpiperidine-1-carboxamide], 437%; under `CC(C)N1CCCN([C@H]2CCCC(F)(F)[C@@H]2NC(=O)N2CCC(C)(c3noc([C@@H]4C[C@@H]4F)n3)CC2)CC1` [Example 152, N-{(1R,6S)-2,2-difluoro-6-[4-(propan-2-yl)-1,4-diazepan-1-yl]cyclohexyl}-4-{5-[(1S,2S)-2-fluorocyclopropyl]-1,2,4-oxadiazol-3-yl}-4-methylpiperidine-1-carboxamide], 470%.

The same experiment, now with this note: relative percentage of luminescence for the luminescence (100%) of Orexin A (100 pM); CHO cells transiently expressing human orexin receptor type 2 and apoaequorin; Orexin A Lot. 671009; 0.0001 µM.
For `CN(CC1CC1)C1C[C@H]2CC[C@@H](C1)N2[C@H]1CCCC(F)(F)[C@@H]1NC(=O)N1CCC(C)(c2noc([C@@H]3C[C@@H]3F)n2)CC1` (stereo partly drawn) [Example 141, N-[(1R,6S)-6-{(1R,3R,5S)-3-[(cyclopropylmethyl)(methyl)amino]-8-azabicyclo[3.2.1]octan-8-yl}-2,2-difluorocyclohexyl]-4-{5-[(1S,2S)-2-fluorocyclopropyl]-1,2,4-oxadiazol-3-yl}-4-methylpiperidine-1-carboxamide], the “agonist activity (%)” value came out at 405%.
Same read-out and setting: under `CN(CC1CC1)C1C[C@H]2CC[C@@H](C1)N2[C@H]1CCCC(F)(F)[C@@H]1NC(=O)N1CCC(C)(c2noc([C@@H]3C[C@@H]3F)n2)CC1` (stereo partly drawn) [Example 142, N-[(1R,6S)-6-{(1R,3S,5S)-3-[(cyclopropylmethyl)(methyl)amino]-8-azabicyclo[3.2.1]octan-8-yl}-2,2-difluorocyclohexyl]-4-{5-[(1S,2S)-2-fluorocyclopropyl]-1,2,4-oxadiazol-3-yl}-4-methylpiperidine-1-carboxamide] stands 407%.
